According to patent US9920032B2, “Heterocyclic compounds useful as pim kinase inhibitors” (Incyte Corporation, priority 2015, dated 2018):

Tests used:
Format in all cases: biochemical
Pim-1 = Pim-1 (Homo sapiens (Human), UniProt P11309); assay: Pim-1 kinase assay; details: 1 mM ATP; read-out: PIM1 IC50
Outline: (§1)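 Enzyme at 2.5 pM (Pim-1) or 1.25 pM (Pim-3) reacted 1 h at 25° C with 1 mM ATP and 0.05 μM biotinylated BAD peptide, pH 7.5. Phospho-Ser112 BAD detected by antibody/Protein-A acceptor and streptavidin donor bead proximity signal after EDTA quench and 1 h dark incubation.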

Pim-2 = Pim-2 (Homo sapiens (Human), UniProt Q9P1W9); assay: Pim-2 kinase assay; details: 1 mM ATP; read-out: PIM2 IC50
Chain of Pim-2 (Q9P1W9 whole entry): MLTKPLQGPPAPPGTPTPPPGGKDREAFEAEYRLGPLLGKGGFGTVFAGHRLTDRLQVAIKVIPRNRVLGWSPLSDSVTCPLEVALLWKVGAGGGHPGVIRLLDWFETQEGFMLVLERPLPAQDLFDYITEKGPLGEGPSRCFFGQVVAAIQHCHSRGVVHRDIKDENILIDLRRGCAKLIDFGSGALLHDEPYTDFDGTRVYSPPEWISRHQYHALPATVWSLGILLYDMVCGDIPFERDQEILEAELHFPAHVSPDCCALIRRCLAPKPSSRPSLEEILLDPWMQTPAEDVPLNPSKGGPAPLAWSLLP
Outline: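 TR-FRET assay with 1 nM enzyme, 0.05 μM fluorescein-CREBtide and 1 mM ATP in Tris pH 7.5 buffer with MgCl2, DTT, BSA and Tween-20, run 2 h at 25° C. Stopped with EDTA and Tb-labelled anti-CREB pSer133 antibody, then read after 30 min at room temperature.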

Pim-3 = Pim-3 (Homo sapiens (Human), UniProt Q86V86); assay: Pim-3 kinase assay; details: 1 mM ATP; read-out: PIM3 IC50
Outline: as §1

Chain of Pim-1 (P11309 whole entry): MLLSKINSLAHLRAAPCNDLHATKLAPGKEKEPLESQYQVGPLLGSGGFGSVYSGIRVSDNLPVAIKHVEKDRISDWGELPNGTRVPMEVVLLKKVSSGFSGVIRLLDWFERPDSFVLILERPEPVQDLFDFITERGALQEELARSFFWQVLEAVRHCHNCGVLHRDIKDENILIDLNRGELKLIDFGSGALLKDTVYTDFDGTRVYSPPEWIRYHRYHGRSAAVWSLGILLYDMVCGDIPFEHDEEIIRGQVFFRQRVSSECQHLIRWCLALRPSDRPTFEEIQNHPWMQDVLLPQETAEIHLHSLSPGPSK

SMILES | IC50 (Pim-1) | IC50 (Pim-2) | IC50 (Pim-3)
CCOC1CN(c2cnc3c(C(=O)Nc4cnccc4[C@@H]4C[C@H](C)C[C@H](N)C4)ccc(F)c3c2)C1 [Example 122, N-(4-((1R,3S,5S)-3-Amino-5-methylcyclohexyl)pyridin-3-yl)-3-(3-ethoxyazetidin-1-yl)-5-fluoroquinoline-8-carboxamide] | ≤ 10 nM | ≤ 100 nM | ≤ 10 nM
C[C@@H]1C[C@H](N)C[C@H](c2ccncc2NC(=O)c2ccc(F)c3cc(N(C)c4cnccc4C(F)(F)F)cnc23)C1 [Example 143, N-(4-((1R,3S,5S)-3-Amino-5-methylcyclohexyl)pyridin-3-yl)-5-fluoro-3-(methyl(4-(trifluoromethyl)pyridin-3-yl)amino)quinoline-8-carboxamide] | ≤ 10 nM | ≤ 100 nM | ≤ 10 nM
COC[C@@H]1CCCN1c1cnc2c(C(=O)Nc3cnccc3[C@@H]3C[C@H](C)C[C@H](N)C3)ccc(F)c2c1 [Example 48, N-(4-((1R,3S,5S)-3-Amino-5-methylcyclohexyl)pyridin-3-yl)-5-fluoro-3-((S)-2-(methoxymethyl)pyrrolidin-1-yl)quinoline-8-carboxamide] | ≤ 10 nM | 100 to 1000 nM | ≤ 10 nM
Cc1ccncc1N(C)c1cnc2c(C(=O)Nc3cnccc3[C@@H]3C[C@H](C)C[C@H](N)C3)ccc(F)c2c1 [Example 146, N-(4-((1R,3S,5S)-3-Amino-5-methylcyclohexyl)pyridin-3-yl)-5-fluoro-3-(methyl(4-methylpyridin-3-yl)amino)quinoline-8-carboxamide] | ≤ 10 nM | ≤ 100 nM | ≤ 10 nM
CC1CCCCN1c1cnc2c(C(=O)Nc3cnccc3[C@@H]3C[C@H](C)C[C@H](N)C3)cccc2c1 (stereo partly drawn) [Example 70, N-(4-((1R,3S,5S)-3-Amino-5-methylcyclohexyl)pyridin-3-yl)-3-(2-methylpiperidin-1-yl)quinoline-8-carboxamide] | ≤ 10 nM | 100 to 1000 nM | ≤ 10 nM
C[C@@H]1C[C@H](N)C[C@H](c2ccncc2NC(=O)c2ccc(F)c3cc(N4CC5(CC(O)C5)C4)cnc23)C1 [Example 103, N-(4-((1R,3S,5S)-3-Amino-5-methylcyclohexyl)pyridin-3-yl)-5-fluoro-3-(6-hydroxy-2-azaspiro[3.3]heptan-2-yl)quinoline-8-carboxamide] | ≤ 10 nM | ≤ 100 nM | ≤ 10 nM
C[C@@H]1C[C@H](N)C[C@H](c2ccncc2NC(=O)c2ccc(F)c3cc(N4CC[C@H](O)[C@@H](F)C4)cnc23)C1 [Example 108, N-(4-((1R,3S,5S)-3-Amino-5-methylcyclohexyl)pyridin-3-yl)-5-fluoro-3-((3S,4S)-3-fluoro-4-hydroxypiperidin-1-yl)quinoline-8-carboxamide] | ≤ 10 nM | ≤ 100 nM | ≤ 10 nM
COC(=O)N1C[C@H]2C[C@@H]1CN2c1cnc2c(C(=O)Nc3cnccc3[C@@H]3C[C@H](C)C[C@H](N)C3)ccc(F)c2c1 [Example 90, (1R,4R)-Methyl 5-(8-(4-((1R,3S,5S)-3-amino-5-methylcyclohexyl)pyridin-3-ylcarbamoyl)-5-fluoroquinolin-3-yl)-2,5-diazabicyclo[2.2.1]heptane-2-carboxylate] | ≤ 10 nM | ≤ 100 nM | ≤ 10 nM
C[C@@H]1C[C@H](N)C[C@H](c2ccncc2NC(=O)c2ccc(F)c3cc(N4CCCCC4C(F)F)cnc23)C1 (stereo partly drawn) [Example 58, N-(4-((1R,3S,5S)-3-Amino-5-methylcyclohexyl)pyridin-3-yl)-3-(2-(difluoromethyl)piperidin-1-yl)-5-fluoroquinoline-8-carboxamide] | ≤ 10 nM | ≤ 100 nM | ≤ 10 nM
C[C@@H]1C[C@H](N)C[C@H](c2ccncc2NC(=O)c2ccc(F)c3cc(N4CC(C)(C)C4)cnc23)C1 [Example 116, N-(4-((1R,3S,5S)-3-Amino-5-methylcyclohexyl)pyridin-3-yl)-3-(3,3-dimethylazetidin-1-yl)-5-fluoroquinoline-8-carboxamide] | ≤ 10 nM | ≤ 100 nM | ≤ 10 nM
C[C@@H]1C[C@H](N)C[C@H](c2ccncc2NC(=O)c2ccc(F)c3cc(N4CCc5ccccc54)cnc23)C1 [Example 79, N-(4-((1R,3S,5S)-3-Amino-5-methylcyclohexyl)pyridin-3-yl)-5-fluoro-3-(indolin-1-yl)quinoline-8-carboxamide] | ≤ 10 nM | 100 to 1000 nM | ≤ 10 nM
C[C@@H]1C[C@H](N)C[C@H](c2ccncc2NC(=O)c2ccc(F)c3cc(N4CCN(S(C)(=O)=O)C[C@@H]4C)cnc23)C1 [Example 85, N-(4-((1R,3S,5S)-3-Amino-5-methylcyclohexyl)pyridin-3-yl)-5-fluoro-3-((S)-2-methyl-4-(methylsulfonyl)piperazin-1-yl)quinoline-8-carboxamide] | ≤ 10 nM | 100 to 1000 nM | ≤ 10 nM
C[C@@H]1C[C@H](N)C[C@H](c2ccncc2NC(=O)c2ccc(F)c3cc(N4CCCC(F)(F)C4)cnc23)C1 [Example 28, N-{4-[(1R,3S,5S)-3-Amino-5-methylcyclohexyl]pyridin-3-yl}-3-(3,3-difluoropiperidin-1-yl)-5-fluoroquinoline-8-carboxamide] | ≤ 10 nM | ≤ 100 nM | ≤ 10 nM
C[C@@H]1C[C@H](N)C[C@H](c2ccncc2NC(=O)c2ccc(F)c3cc(N4CCO[C@@H](C)C4)cnc23)C1 [Example 38, N-(4-((1R,3S,5S)-3-Amino-5-methylcyclohexyl)pyridin-3-yl)-5-fluoro-3-((S)-2-methylmorpholino)quinoline-8-carboxamide] | ≤ 10 nM | 100 to 1000 nM | 10 to 50 nM
CC(C)CN1CCN(c2cnc3c(C(=O)Nc4cnccc4[C@@H]4C[C@H](C)C[C@H](N)C4)ccc(F)c3c2)CC1=O [Example 117, N-(4-((1R,3S,5S)-3-Amino-5-methylcyclohexyl)pyridin-3-yl)-5-fluoro-3-(4-isobutyl-3-oxopiperazin-1-yl)quinoline-8-carboxamide] | ≤ 10 nM | ≤ 100 nM | ≤ 10 nM
C[C@@H]1C[C@H](N)C[C@H](c2ccncc2NC(=O)c2ccc(F)c3cc(N4CCCS4(=O)=O)cnc23)C1 [Example 138, N-(4-((1R,3S,5S)-3-Amino-5-methylcyclohexyl)pyridin-3-yl)-3-(1,1-dioxidoisothiazolidin-2-yl)-5-fluoroquinoline-8-carboxamide] | ≤ 10 nM | 100 to 1000 nM | ≤ 10 nM
C[C@@H]1C[C@H](N)C[C@H](c2ccncc2NC(=O)c2ccc(F)c3cc(N4C[C@H]5C[C@@H]4CO5)cnc23)C1 [Example 80, N-(4-((1R,3S,5S)-3-Amino-5-methylcyclohexyl)pyridin-3-yl)-3-((1R,4R)-2-oxa-5-azabicyclo[2.2.1]heptan-5-yl)-5-fluoroquinoline-8-carboxamide] | ≤ 10 nM | ≤ 100 nM | ≤ 10 nM
C[C@@H]1C[C@H](N)C[C@H](c2ccncc2NC(=O)c2ccc(F)c3cc(-c4cc(F)cc5cccnc45)cnc23)C1 [Example 59, N-(4-((1R,3S,5S)-3-Amino-5-methylcyclohexyl)pyridin-3-yl)-5,6′-difluoro-3,8′-biquinoline-8-carboxamide] | ≤ 10 nM | 1000 to 10000 nM | 10 to 50 nM
